From patent publication US5705649A, “Protein staining compositions and methods” (Promega Corporation, priority 1995, dated 1998)
Values belong to the molecule of their own block, whether it stands above or below them.

Legend:
[1] = system: Promega Mid Range Molecular Weight Standards; assay: Detection of denatured protein with dodecylamino and octylamino derivatives of fluorescein isothiocyanate
Procedure: A fifteen well, 12% gel was made as described in example 5 and was loaded with diluted Promega Mid Range Molecular Weight Standards to produce lanes containing samples having 200, 100, 80, 60, 40, 20 and 10 ng of protein per band. The gel was run as described in example 5 except that Promega Green 1 was not added to the cathode buffer. After electrophoresis, the gel was cut between lanes to produce gel segments containing fractionated protein samples at each of the concentrations listed above and these were placed in 30% methanol for 25-30 min at room temperature. The stock stain solutions of Example 33 were then diluted into distilled water at a concentration of 0.5% (v/v), and 50 ml of these solutions were used to stain the gels. After 1 hr incubation, the gels were visualized and photographed using a transilluminator. […] The gels were then placed in 5% methanol and allowed to destain overnight.
Gels were made and loaded as described in Example 34. The gels were incubated in 30% methanol for 15 min to fix the protein and then were incubated in 50 ml of a solution of the stains of Example 38 made by dilution of the stock stain solutions described in Example 38 to a concentration of 0.5% (v/v) in distilled water. After incubation in the staining solution for 1 hr, the gels were placed in 5% methanol and were visualized and photographed after 30 min by placement of the gel segment on a transilluminator. Photography of the segments was performed as described in Example 27. At this point, protein bands were visualized in the gel stained with the dodecylamino derivative at a concentration as low as 80 ng of protein per band.
The gel segments were then returned to the destaining solutions and allowed to incubate overnight. The segment of the gel stained with the octylamino derivative was transferred to a solution of 30% methanol following the overnight incubation and was revisualized and rephotographed after 1 hr of incubation in this methanol solution. At this point, protein was detected at fluorescently labeled bands to a concentration as low as 40 ng of protein per band.

[2] = system: Promega Mid-Range Molecular Weight Markers; assay: Enhancement of staining of proteins in SDS-PAGE gels in 5% acetic acid; conditions: 5% acetic acid
Procedure: The gels described above were placed in 5% acetic acid following the termination of the electrophoretic separation. Within one to two minutes the gel developed a light green background but the protein bands dramatically darkened to a green color. […] Again, the color of the background darkened to a greater degree when greater concentrations of dye were used.
The gels above (from Example 7) were placed in 5% acetic acid following termination of the electrophoretic separation. Within 1-2 minutes, all the gels turned light green and the color of the stained bands intensified such that all proteins were visible--even in the lane containing 0.25 μg protein/band.
The gels above (Example 9) were placed in 5% acetic acid following termination of the electrophoretic separation. Within 1-2 minutes, all the gels turned light green and the color of the stained bands intensified such that all proteins were visible--even in the lanes containing 0.25 μg protein/band.

[3] = Spectral analyses of Coomassie Blue R and Promega Green 1, 2, 3; assay type: physicochemical; conditions: diluted 1:500 in 1:1 methanol:water
Procedure: The three solutions of Promega Green 1, 2, and 3, from examples 1, 2 and 3 respectively, were diluted approximately 500 fold into a 1:1 solution of methanol:water. The spectra of the resulting solutions and of a 12 μg/ml solution of Coomassie Blue R (in 1:1 methanol:water) were recorded from 700 to 340 nm versus 1:1 methanol:water. […] All of the derivatives gave essentially identical spectra; however, the maximal absorbance of the diluted Promega Green i was about twice that seen for the other derivatives. The derivatives had two peak absorptions in the region of the spectrum scanned, a major peak at around 630 nm and a second peak at around 440 nm. The following absorbances were recorded at the peaks near 630 nm for the three Promega Green dye solutions (diluted 1:500 in 1:1 methanol:water): […]

[4] = system: Promega Mid-Range Molecular Weight Markers; assay: Detection of proteins during SDS-PAGE electrophoresis (dye in cathode buffer); conditions: 10% SDS-PAGE, dye in cathode buffer, white plastic card behind gel
Excerpt: Solutions for the formation and electrophoresis of proteins were made according to the instructions given in Experiments in Gene Fusions, Silhavy, Berman, Enquist, Cold Spring Harbor Laboratory Press, Cold Spring Harbor, N.Y. with the following changes:
a) The SDS concentration in the upper and lower gel buffer components were reduced to result in a 0.05% final SDS concentration in the gel. Thus, the composition of 4× upper gel buffer was 0.5M Tris-HCl, pH 6.8, 0.2 % (w/v) sodium dodecylsulfate (SDS) and the composition of 4× lower gel buffer was 1.5M Tris-HCl, pHS.8, 0.2 % (w/v) SDS.
b) The SDS concentration in the electrophoretic (electrode) buffer was reduced to 0.04% final concentration. Thus, 4× electrode (anode or cathode) buffer was made by dissolving 60 g Tris base, 288 g glycine, and 8 g SDS dissolved in water and then diluting with water to 5 liters. Another name sometimes used for "electrode" buffer is "running" buffer.
c) The SDS concentration in the 2× sample buffer was reduced to 1% final SDS concentration. Thus, 2× sample buffer was made by mixing 0.5 ml of betamercaptoethanol, 0.25 ml of 0.1% (w/v) bromophenol blue, 1 ml of 10 % (w/v) SDS, 3 ml of water, and 5.3 ml of 2× glycerol buffer. 2× glycerol buffer is made by mixing 12.5 ml of 4× upper gel buffer and 20 ml of glycerol and diluting the resulting solution to 60 ml with water. Another name sometimes used for "sample" buffer is "loading" buffer.
d) Electrophoresis was performed using a BIO-RAD miniprotein II electrophoresis apparatus and gels were poured such that i cm of space was present between the bottom of the loading wells and the separating gel.
In other electrophoresis experiments reported in this application, the buffers used were as described above in this example. In some cases, as in this example, where preparation of a solution of dye in 150 ml of cathode (or electrode) buffer is specified, an amount of stock solution of a dye was first added to 150 ml of cathode buffer and then 125 ml of the resulting solution was used to fill the cathode buffer chamber (which holds 125 ml) in the electrophoresis apparatus. In other cases, where addition of stock solution of dye to the cathode buffer is specified without reference to the volume of cathode buffer or with reference to such volume being "125 ml," the stock solution was added directly to 125 ml of cathode buffer already in the cathode buffer chamber.
The samples used were prepared with Promega Mid-Range Molecular Weight Markers solution (Promega Corp., Madison, Wis., USA, Catalog No. V5231) (referred to hereinafter as "Promega Mid-Range [Molecular Weight] Markers or Standards") diluted into Sample Buffer. […]

[5] = 0.5% (v/v) stain 1 hr, 5% methanol 30 min

Structure (SMILES): CCCCCCCCCCCCNC(=S)Nc1ccc(-c2c3ccc(=O)cc-3oc3cc(O)ccc23)c(C(=O)O)c1 [dodecylamino derivative]
- lowest protein per band visualized [1, 5]: 80 ng

Structure (SMILES): CCCCCCCCNC(=S)Nc1ccc(-c2c3ccc(=O)cc-3oc3cc(O)ccc23)c(C(=O)O)c1 [octylamino derivative]
- background / visualization of bands [1, 5]: high background fluorescence which prevented visualization of the protein bands
- lowest protein per band detected ([1]; after overnight destaining, then 30% methanol 1 hr): 40 ng

- Absorbance at the peak near 630 nm [3]: 1.37
Structure (SMILES): CCOc1ccc(N(C(C)=O)c2ccc(C(=C3C=CC(=[N+](CC)Cc4cccc(S(=O)(=O)[O-])c4)C=C3)c3ccc(N(CC)Cc4cccc(S(=O)(=O)O)c4)cc3)cc2)cc1 [Promega Green 2]
- lowest protein amount per band visible after enhancement ([2]; 1-2 minutes): 0.25 µg
- staining after overnight incubation ([2]; overnight): slightly faded
- lowest protein amount per band visible while the gel was running [4]: 1.0 µg
